Experimental data reported in article PMC6072853 (Frontiers in Pharmacology, 2018).

Experiments:
Format in all cases: cell-based, human
[1] = system: A2780; assay: MTT antiproliferative assay, A2780; conditions: Homo sapiens, 72 h, read-out: Growth inhibition (%) ± SEM; for inhibition at 10 µM: A2780, 10 μM; for inhibition at 30 µM: A2780, 30 μM
Excerpt: (§1) Gynecological cancer cell lines, including ovarian (A2780), cervical (HeLa), and breast cancer cell lines (MCF7, T47D, MDA-MB-231, and MDA-MB-361) were purchased from the European Collection of Authenticated Cell Cultures (ECACC, Salisbury, United Kingdom). Additional cervical cell lines (SiHa and C33A) and a non-cancerous immortalized, mammary gland epithelial cell line (hTERT-HME1) were purchased from LGC Standards GmbH (Wesel, Germany). Non-cancerous fibroblast cells (MRC-5) were also obtained from the ECACC. All cells were cultured in minimal essential medium supplemented with 10% fetal bovine serum, 1% non-essential amino acids, and 1% antibiotic-antimycotic mixture, in humidified air containing 5% CO2 at 37°C. Immortalized hTERT-HME1 cells were maintained in serum-free mammary epithelial cell growth medium (MEGM) supplemented with insulin, human epidermal growth factor (hEGF), hydrocortisone, bovine pituitary extract, and an antibiotic-antimycotic mixture. All the medium and supplements were purchased from Lonza Group Ltd. (Basel, Switzerland).
(§2) The antiproliferative properties of the compounds were assessed by an MTT assay ([Mosmann, 1983]). Cells were seeded onto 96-well microplates at a density of 10,000 cells/well (MDA-MB-361 and C33A) or 5,000 cells/well (all other cell lines). After an overnight incubation, fresh medium containing the test compounds (at a concentration of 10 or 30 μM) was added. After incubation for 72 h at 37°C in humidified air, [3-(4,5-dimethylthiazol-2-yl)-2,5-diphenyltetrazolium bromide] (MTT) solution (5 mg/mL) was added. Purple formazan crystals were formed by the living cells during a 4 h contact period, which were assayed by spectrophotometry after having been dissolved in 100 μL DMSO. Untreated cells served as control, and cisplatin (CIS) (Ebewe Pharma GmbH, Unterach, Austria) was used as a reference compound. […] Two independent measurements were performed with five parallel wells. To present preliminary data concerning tumor selectivity of the potent compounds, the procedure was repeated on MRC-5 fibroblast and hTERT-HME1 immortalized mammary gland epithelial cells under the same experimental conditions.

[2] = system: MDA-MB-361; assay: MTT antiproliferative assay, MDA-MB-361; conditions: Homo sapiens, 72 h, read-out: Growth inhibition (%) ± SEM; for inhibition at 10 µM: MDA-MB-361, 10 μM; for inhibition at 30 µM: MDA-MB-361, 30 μM
Excerpt: as §1, §2

[3] = system: SiHa; assay: MTT antiproliferative assay, SiHa; conditions: Homo sapiens, 72 h, read-out: Growth inhibition (%) ± SEM
Excerpt: as §1, §2

[4] = system: C33A; assay: MTT antiproliferative assay, C33A; conditions: Homo sapiens, C-33-A, 72 h, read-out: Growth inhibition (%) ± SEM
Excerpt: as §1, §2

[5] = system: MCF-7; assay: MTT antiproliferative assay, MCF-7; conditions: Homo sapiens, MCF7, 72 h, read-out: Growth inhibition (%) ± SEM; for inhibition at 10 µM: MCF-7, 10 μM; for inhibition at 30 µM: MCF-7, 30 μM
Excerpt: as §1, §2

[6] = system: MDA-MB-231; assay: MTT antiproliferative assay, MDA-MB-231; conditions: Homo sapiens, 72 h, read-out: Growth inhibition (%) ± SEM; for inhibition at 10 µM: MDA-MB-231, 10 μM; for inhibition at 30 µM: MDA-MB-231, 30 μM
Excerpt: as §1, §2

[7] = system: T47D; assay: MTT antiproliferative assay, T47D; conditions: Homo sapiens, 72 h, read-out: Growth inhibition (%) ± SEM
Excerpt: as §1, §2

[8] = system: MRC-5; assay: MTT assay, non-cancerous fibroblasts MRC-5; conditions: Homo sapiens, MRC5, 72 h, read-out: Growth inhibition (%) ± SEM
Excerpt: as §1, §2

[9] = system: HeLa; assay: MTT antiproliferative assay, HeLa; conditions: Homo sapiens, 72 h; for inhibition at 10 µM / inhibition at 30 µM: read-out: Growth inhibition (%) ± SEM
Excerpt: as §1, §2

With C[C@]12CC[C@H]3[C@@H](CCC4=CC(=O)CC[C@@H]43)[C@@H]1CC[C@H]2I [Compound 5] the inhibition at 10 µM [1] was 27.7 ± 1.3%, the inhibition at 30 µM [1] was 61.6 ± 1.8% and the inhibition at 10 µM [2] was less than 20%. The inhibition at 30 µM [2] was less than 20%, the inhibition at 10 µM [3] was less than 20% and the inhibition at 30 µM [3] was less than 20%. The inhibition at 10 µM [4] was less than 20%, the inhibition at 30 µM [4] was less than 20% and the inhibition at 10 µM [5] was less than 20%. The inhibition at 30 µM [5] was less than 20%, the inhibition at 10 µM [6] was less than 20% and the inhibition at 30 µM [6] was less than 20%. The inhibition at 10 µM [7] was less than 20%, the inhibition at 30 µM [7] was less than 20% and the inhibition at 10 µM ([8]; MRC-5, 10 μM) was 13.1 ± 1.9%. The inhibition at 30 µM ([8]; MRC-5, 30 μM) was 13.8 ± 2%, the inhibition at 10 µM [9] was 95.2 ± 0.4% and the inhibition at 30 µM [9] was 95.8 ± 0.2%. The IC50 ([9]; read-out: calculated IC50 value) was 1490 nM.

In the case of C[C@]12CC[C@H]3[C@@H](CCC4=CC(=O)CC[C@@H]43)[C@@H]1CC[C@H]2OC(=O)c1ccc([N+](=O)[O-])cc1[N+](=O)[O-] [Compound 6, 17α-19-nortestosterone-17-yl 2′,4′-dinitrobenzoate], the inhibition at 10 µM [1] is reported as less than 20%, the inhibition at 30 µM [1] is reported as 31.9 ± 2.6% and the inhibition at 10 µM [2] is reported as less than 20%. For the same compound, the inhibition at 30 µM [2] was less than 20%, the inhibition at 10 µM [3] was less than 20% and the inhibition at 30 µM [3] was less than 20%. For the same compound, the inhibition at 10 µM [4] was less than 20%, the inhibition at 30 µM [4] was less than 20% and the inhibition at 10 µM [5] was less than 20%. The inhibition at 30 µM [5] was 35.9 ± 1.4%, the inhibition at 10 µM [6] was less than 20% and the inhibition at 30 µM [6] was less than 20%. For the same compound, the inhibition at 10 µM [7] was less than 20%, the inhibition at 30 µM [7] was 47.2 ± 2.6% and the inhibition at 10 µM [9] was 32 ± 2.9%. For the same compound, the inhibition at 30 µM [9] was 26.5 ± 2.3%.

With C[C@]12CC[C@H]3[C@@H](CCC4=CC(=O)CC[C@@H]43)[C@@H]1CC[C@H]2OC(=O)c1cc([N+](=O)[O-])cc([N+](=O)[O-])c1 [Compound 7, 17α-19-nortestosterone-17-yl 3′,5′-dinitrobenzoate] the inhibition at 10 µM [1] was 49.2 ± 0.9%, the inhibition at 30 µM [1] was 58.1 ± 2% and the inhibition at 10 µM [2] was less than 20%. For the same compound, the inhibition at 30 µM [2] was 22 ± 1.6%, the inhibition at 10 µM [3] was less than 20% and the inhibition at 30 µM [3] was less than 20%. The inhibition at 10 µM [4] was less than 20%, the inhibition at 30 µM [4] was less than 20% and the inhibition at 10 µM [5] was 25.9 ± 3.1%. For the same compound, the inhibition at 30 µM [5] was 37.7 ± 3.4%, the inhibition at 10 µM [6] was less than 20% and the inhibition at 30 µM [6] was less than 20%. For the same compound, the inhibition at 10 µM [7] was less than 20%, the inhibition at 30 µM [7] was less than 20% and the inhibition at 10 µM [9] was 26.6 ± 1.8%. For the same compound, the inhibition at 30 µM [9] was 21.5 ± 1.9%.
